In patent US12187715B2, “Small molecule activators of Tie-2” (EyePoint Pharmaceuticals, Inc., priority 2019, dated 2025):
“And” between values parts separate entries of the source, which are not always exact repeats. Equal entries are not always repeated. “Also recorded” adds a separate entry of the source. Marks after values point to notes of the source that are not given here. Each block holds one molecule with its values, some of them ahead of it.

Legend:
Format in all cases: physicochemical
[1] = HPLC purity analyses of aqueous solutions over time at room temperature (chemical stability)
[2] = Physical stability (appearance) of the aqueous solutions standing at room temperature; settings: for Gelation or precipitation of undiluted solution: throughout the 4-week study period (Compound 2: over 5 weeks); for Appearance of solution: undiluted
[3] = Syringability testing (200 g weight on BD 1-mL syringe plunger, 27 G needle); settings: for Syringability of the saturated solutions (in words): undiluted solutions
Method: Syringability testing was carried out by applying 200 g of weight on top of a BD 1-mL syringe plunger and measuring the time required to expel 1 mL of the saturated solutions through a 27 G needle. The times are recorded in TABLE 4. At T=0, 43 seconds were required to expel 1 mL of Compound 2, while 8 seconds were required to expel 1 mL of Compound 4. In contrast, approximately 5 minutes were required to expel only 0.1 mL of Compound 3, based on the very high viscosity of the solution relative to that of the other two.
Syringability test results of the 50% diluted solutions (TABLE 5) indicated a slight increase in viscosity (syringability test for water was 10 sec). All three solutions remained easily syringable.

[4] = Solubility testing in water by portionwise addition until saturation; settings: for Amount (g) of compound added until saturation: added portionwise to 10 mL water; for Physical appearance: after portionwise addition to 10 mL water; for Filtration: filtration of the sample attempted after stirring overnight; for solubility at 4 weeks: pH 7, aqueous buffer, 50% dilution with water, adjusted to pH 7, T = 4 weeks; for solubility at 0 weeks: estimated from weight added; for solubility: Conclusions: suspensions stirred overnight, filtered and analyzed by HPLC, initial
Method: The solubility of compounds 2-4 was determined by portionwise addition of the compounds to water until saturation was obtained. Water (10 mL) was added to a 20-mL vial. About 100 mg of Compound 2 was added. The suspension was stirred at room temperature for 20 minutes until the contents became a clear solution. Compound 2 (˜100 mg portionwise) was added repeatedly with 30 min stirring time between the additions. Once a suspension was obtained after continuous stirring for 2 hours, the suspension was stirred overnight. The same procedure was used for the suspension preparations of Compound 3 and Compound 4.
After stirring overnight, filtration of each sample was attempted.
An aliquot of the suspension of Compound 2 was filtered through a 0.22 micron inline syringe filter.
About 1 mL of the aqueous solutions prepared above was diluted with water by 50%. The pH of the 50% diluted solutions was adjusted to pH 7 either by 0.1 N HCl or by 0.1 N NaOH. Solubility values for the three compounds in the solutions/suspensions before and after dilution are given in the in TABLE 3.
The solubility of Compounds 2-4 was determined by portionwise addition of the compounds to water until saturation was obtained. After stirring overnight, the suspensions were filtered and analyzed by HPLC. […] The solubility of Compound 3 was >200 mg/mL. The absolute solubility of Compound 3 was not determined because in the course of analysis, the solution of Compound 3 became too viscous to stir. […] The 50% diluted solutions of Compounds 2-4 were not viscous, and the compounds remained in solution for 4 weeks. […] All of the diluted solutions were easily syringable over 4 weeks' time.

[5] = 50% diluted samples, room temperature, T = 4 weeks
[6] = undiluted samples, T = 0 (dry sample)
[7] = undiluted samples, room temperature, T = 5 weeks
[8] = undiluted samples, room temperature, T = 1 day
[9] = 50% diluted solution, T = 2 week
[10] = 50% diluted solution, T = 3 week
[11] = 50% diluted solution, T = 4 week
[12] = 50% diluted solution, T = 2 day
[13] = 50% diluted solution, T = 3 day
[14] = 50% diluted solution, T = 4 day
[15] = 50% diluted solution, T = 7 day
[16] = saturated (undiluted) solution, T = 0
[17] = saturated (undiluted) solution, T = 1 day
[18] = saturated (undiluted) solution, T = 2 day
[19] = saturated (undiluted) solution, T = 3 day
[20] = water, thermodynamic from solid, Before dilution, T = 0
[21] = water, thermodynamic from solid

HPLC purity [1, 5]: 97.69%
HPLC purity [1, 6]: 98.72%
HPLC purity [1, 7]: 96.53%
HPLC purity [1, 8]: 98.2%
Gelation or precipitation of undiluted solution [2]: No gelation or precipitation
Appearance of solution ([2]; T = 0): Clear
Appearance of solution ([2]; T = 2 week): Clear
Appearance of solution ([2]; T = 3 week): Clear
Appearance of solution ([2]; T = 4 week): Clear
Appearance of solution ([2]; T = 1 day): Clear
Appearance of solution ([2]; T = 2 day): Clear
Appearance of solution ([2]; T = 3 day): Clear
Appearance of solution ([2]; T = 4 day): Clear
Appearance of solution ([2]; T = 5 day): Clear
Appearance of solution ([2]; T = 6 day): Clear
Syringability: time to expel 1 mL [3, 9]: 13 s
Syringability: time to expel 1 mL [3, 10]: 13 s
Syringability: time to expel 1 mL [3, 11]: 14 s
Syringability: time to expel 1 mL [3, 12]: 12 s
Syringability: time to expel 1 mL [3, 13]: 14 s
Syringability: time to expel 1 mL [3, 14]: 15 s
Syringability: time to expel 1 mL [3, 15]: 12 s
Syringability: time to expel 1 mL [3, 16]: 8 s
Syringability: time to expel 1 mL ([3]; saturated (undiluted) solution, T = 2 week): 13 s
Syringability: time to expel 1 mL ([3]; saturated (undiluted) solution, T = 3 week): 12 s
Syringability: time to expel 1 mL ([3]; saturated (undiluted) solution, T = 4 week): 13 s
Syringability: time to expel 1 mL [3, 17]: 12 s
Syringability: time to expel 1 mL [3, 18]: 15 s
Syringability: time to expel 1 mL [3, 19]: 12 s
Syringability: time to expel 1 mL ([3]; saturated (undiluted) solution, T = 4 day): 13 s
Syringability: time to expel 1 mL ([3]; saturated (undiluted) solution, T = 5 day): 14 s
Syringability: time to expel 1 mL ([3]; saturated (undiluted) solution, T = 6 day): 14 s
Syringability of the saturated solutions (in words) [3]: syringable
Physical state of the preparation ([4]; 50% dilution, T = 4 weeks): (solution)
Physical state of the preparation ([4]; Before dilution, T = 0): (solution)
Solubility value in water ([4]; Before dilution, T = 5 weeks, room temperature): No change*
Amount (g) of compound added until saturation ([4]; room temperature): 0.624 g
Filtration [4]: proceeded readily and Yes
solubility at 4 weeks ([4]; water): 31 mg/mL
solubility at 0 weeks [4, 20]: 62 mg/mL
solubility [4, 21]: ~58 mg/mL
SMILES: COC(=O)N(C)[C@@H](Cc1ccccc1)C(=O)N(C)[C@@H](Cc1ccc(NS(=O)(=O)[O-])cc1)c1csc(-c2cccs2)n1.[Na+] [Compound 4, sodium (4-{(S)-2-{(S)-2-[(methoxycarbonyl)(methyl)amino]-N-methyl-3-phenylpropanamido}-2-[2-(thiophen-2-yl)thiazol-4-yl]ethyl}phenyl)sulfamate]
Physical appearance [4]: formed a suspension; also recorded: Precipitate

HPLC purity [1, 5]: 82%
HPLC purity ([1]; 50% diluted samples, room temperature, T = 6 weeks (reanalysis)): 96.9% and 96.95%
HPLC purity [1, 6]: 99.59%
HPLC purity [1, 7]: 88.99%
HPLC purity ([1]; undiluted samples, room temperature, T = 7 weeks (reanalysis)): 93.9% and 93.93%
HPLC purity [1, 8]: 98.7%
Time until precipitation was observed ([2]; 50% diluted solution): about 2.5 months
Gelation or precipitation of undiluted solution [2]: gradually developed a precipitate
Time until solution started to show haziness ([2]; undiluted solution): 3 days
Appearance of solution ([2]; T = 0): Clear
Appearance of solution ([2]; T = 2 week): Precipitate
Appearance of solution ([2]; T = 3 week): Precipitate
Appearance of solution ([2]; T = 4 week): Precipitate
Appearance of solution ([2]; T = 1 day): Clear
Appearance of solution ([2]; T = 2 day): Clear
Appearance of solution ([2]; T = 3 day): Slightly hazy
Appearance of solution ([2]; T = 4 day): Small precipitate
Appearance of solution ([2]; T = 5 day): Small precipitate
Appearance of solution ([2]; T = 6 day): Precipitate
Syringability: time to expel 1 mL [3, 9]: 14 s
Syringability: time to expel 1 mL [3, 10]: 11 s
Syringability: time to expel 1 mL [3, 11]: 11 s
Syringability: time to expel 1 mL [3, 12]: 10 s
Syringability: time to expel 1 mL [3, 13]: 15 s
Syringability: time to expel 1 mL [3, 14]: 18 s
Syringability: time to expel 1 mL [3, 15]: 15 s
Syringability: time to expel 1 mL [3, 16]: 43 s
Syringability: time to expel 1 mL [3, 17]: 52 s
Syringability: time to expel 1 mL [3, 18]: 65 s
Syringability: time to expel 1 mL [3, 19]: 58 s
Syringability of the saturated solutions (in words) [3]: syringable
Physical state of the preparation ([4]; 50% dilution, T = 4 weeks): (solution) ***
Physical state of the preparation ([4]; Before dilution, T = 0): (suspension)
Amount (g) of compound added until saturation ([4]; room temperature): 2.53 g and 2.528 g
Filtration [4]: difficult and Yes
Concentration in clear filtrate as share of the concentration of the initial, supersaturated solution ([4]; suspension filtered through 0.22 micron filter after 5 weeks): 25%
solubility at 4 weeks ([4]; water): ~125 mg/mL
solubility at 0 weeks [4, 20]: ~250 mg/mL
solubility at 5 weeks ([4]; water, thermodynamic from solid, Before dilution, T = 5 weeks, room temperature): 49.5 mg/mL
solubility [4, 21]: ~200 mg/mL
SMILES: COC(=O)N(C)[C@@H](Cc1ccccc1)C(=O)N[C@@H](Cc1ccc(NS(=O)(=O)[O-])cc1)c1csc(-c2cccs2)n1.[Na+] [Compound 2, sodium (4-{(S)-2-{(S)-2-[(methoxycarbonyl)(methyl)amino]-3-phenylpropanamido}-2-[2-(thiophen-2-yl)thiazol-4-yl]ethyl}phenyl)sulfamate]
Physical appearance [4]: formed a suspension; also recorded: Precipitate
